Experiment [1] concerns Subtilisin (Bacillus). In words: The ratio (ki + kH)/ki (turnover ratio) was determined using ultimate activity assay.
Experiment [2] has as its system Subtilisin (Bacillus). Briefly: Ratio of the kinetic constants (ki X 10e3) versus Ki was reported.
The test system of experiment [3] is Subtilisin (Bacillus). In words: Ratio of the kinetic constants kH versus ki was reported.
Experiment [4] has as its system Subtilisin (Bacillus). Briefly: Inhibitory activity against subtilisin.
The target in experiment [5] is Chymotrypsinogen A (Bos taurus) (UniProt P00766). Briefly: (§1) Ratio of the kinetic constants kH versus ki was reported.
The target is the same in experiment [6]. Briefly: (§2) Inhibitory activity against alpha-chymotrypsin.
The target is the same in experiment [7]. In words: (§3) Ratio of the kinetic constants (ki X 10e3) versus Ki was reported.
Experiment [8] deals with Chymotrypsinogen A (Bos taurus, UniProt P00766). The description is as §2.
The target in experiment [9] is Chymotrypsinogen A (Bos taurus) (UniProt P00766). Briefly: (§4) The ratio (ki + kH)/ki (turnover ratio) was determined using ultimate activity assay.
Experiment [10] is described as follows: as §1.
The nature of experiment [11]: (§5) Inhibitory activity against subtilisin.
Experiment [12] in a line: as §5. The source holds these as a separate data set.
Experiment [13] is described as follows: as §5. This is another data set of the same source.
A short description of experiment [14]: as §3.
A short description of experiment [15]: as §4.

Consider `CCOC(=O)[C@H](Cc1ccc(OCC2CO2)cc1)NC(C)=O` (some centres not stated), for which the Ratio in [1] turned out to be 2000; in experiment [2], 1000 M⁻¹ min⁻¹; in experiment [3] it was 3900. Further, in [4], the k obs came to 0.0011 s⁻¹. The kH in experiment [4] amounted to 13.8 s⁻¹.
For the molecule `CCOC(=O)[C@H](Cc1ccc(OCC2CO2)cc1)NC(=O)c1ccccc1` (some centres not stated), the Ratio amounted to 300 in experiment [5], 260 M⁻¹ min⁻¹ in [7] and 68 in experiment [9]. Moreover, the k obs in experiment [6] stood at 0.00055 s⁻¹. This molecule came in with a kH in experiment [6] of 5.2 s⁻¹. Also, the Ki in experiment [8] amounted to 380 µM.
As for `O=C(N[C@@H](Cc1ccc(OCC2CO2)cc1)C(=O)Nc1ccc([N+](=O)[O-])cc1)c1ccccc1` (some centres not stated), the figures for the Ratio in experiment [5], in [7] and in [9] were 184, 3000 M⁻¹ min⁻¹ and 80, respectively. In experiment [6], this molecule had a k obs of 0.00037 s⁻¹. In [6], this molecule showed a kH of 0.61 s⁻¹. The molecule further showed a Ki in experiment [8] of 66 µM.
`O=C(N[C@@H](Cc1ccc(OCCC2CO2)cc1)C(=O)Nc1ccc([N+](=O)[O-])cc1)c1ccccc1` (some centres not stated): the Ratio came out at 60 in experiment [5], 14000 M⁻¹ min⁻¹ in experiment [7] and 20 in [9]. In experiment [6], this molecule had a k obs of 0.00056 s⁻¹. Moreover, in experiment [6], the kH was determined as 0.83 s⁻¹. The same molecule displayed a Ki in [8] of 59 µM.
Regarding `CCOC(=O)[C@H](Cc1ccc(OCCC2CO2)cc1)NC(=O)c1ccccc1` (some centres not stated), the Ratio came to 28 in experiment [5], 14600 M⁻¹ min⁻¹ in [7] and 13 in experiment [9]. The same molecule had a k obs in [6] of 0.00027 s⁻¹. The molecule also gave a kH in experiment [6] of 0.38 s⁻¹. This molecule registered a Ki in experiment [8] of 57 µM.
Take `CCOC(=O)[C@H](Cc1ccc(OCCCC2CO2)cc1)NC(=O)c1ccccc1` (some centres not stated): the Ratio in experiment [5] is 109; in experiment [7], 2400 M⁻¹ min⁻¹; in [9] it was 26. Besides, the k obs in experiment [6] is 0.00017 s⁻¹. In addition, the kH in experiment [6] was 0.15 s⁻¹. This molecule also showed a Ki in [8] of 35 µM.
Take `CCOC(=O)[C@H](Cc1ccc(OCCC2CO2)cc1)NC(C)=O` (some centres not stated): the Ratio was determined as 1300 in [10], 3900 M⁻¹ min⁻¹ in [14] and 500 in experiment [15]. The Ki in experiment [11] was 0.0092 s⁻¹; in experiment [13] it was 140 µM. For the same molecule, the k obs in experiment [12] is 0.0014 s⁻¹. This molecule also displayed a kH in experiment [12] of 11.8 s⁻¹.

For the origin of these results see ChEMBL document CHEMBL1125161, “O'-(epoxyalkyl)tyrosines and (epoxyalkyl)phenylalanine as irreversible inactivators of serine proteases: synthesis and inhibition mechanism” (J Med Chem, 1990).
